Assay results: US9943599B2, “Therapeutic applications of calcium electroporation to effectively induce tumor necrosis” (Herlev Hospital, priority 2011, dated 2018)

Experiments:
[1] = test system: DC-3F, K-562 and Lewis Lung Carcinoma cells; assay: Hypothetical sonoporation in vitro, MTT assay; assay type: cell-based, Chinese hamster, human, murine
Experimental: Three cell lines are used for in vitro experiments, DC-3F, a transformed Chinese hamster lung fibroblast cell line; K-562, a human leukemia cell line; and Lewis Lung Carcinoma, a murine lung carcinoma cell line. All cell lines are tested for mycoplasma. Cells are maintained in RPMI 1640 culture medium with 10% fetal calf serum, penicillin and streptomycin at 37° C. and 5% CO2. After harvesting, cells are washed and diluted in HEPES buffer containing 10 mM HEPES, 250 mM sucrose and 1 mM MgCl2 in sterile. The cell suspension with 0, 0.5, 1 and 3 mM CaCl2 is added to a sample tube which is placed in the ultrasound exposure chamber and exposed to low-frequency ultrasound at room temperature. A function generator is programmed to provide a wave of selected voltage, duty cycle, burst length, and total exposure time.
After 20 min at 37° C. and 5% CO2 cells are diluted in RPMI 1640 culture medium with 10% fetal calf serum and penicillin-streptomycin and seeded in 96-well plates at a concentration of 3.1×10^4 cells/100 μl.
Difference between cells treated with and without ultrasound in identical buffer is assessed using two-way analysis of variance CANOVA) with post least-squares-means test with Bonferroni correction for multiple comparisons.

[2] = test system: CT26 (murine colon carcinoma) tumors; assay: Calcium with sonoporation, CT26 tumor volume; assay type: in vivo, Balb/c mice
Experimental: CT26, a murine colon carcinoma cell line was used for the in vivo experiments. The cells were tested by mycoplasma detection kit (Sigma, St. Louis, Mo.) before use without signs of infection. Cells were maintained in vitro in DMEM culture medium (Sigma, St. Louis, Mo.) with 10% fetal calf serum (Sigma, St. Louis, Mo.), L-glutamine, penicillin and streptomycin at 37° C. and 5% CO2. All antibiotics were removed from culture media 24 hours before tumour inoculation. 1.0×10^6 cells/200 μl serum free DMEM were injected subcutaneously in the right flank of 6-8 week old female Balb/c mice, in condition weighing 16-22 g. Mice were randomised at an average tumor size of approximately 5.0 mm in largest diameter and tumors were treated with 1) injection of isotonic calcium-chloride solution (168 mM CaCl2) and sonoporation (3.5 W/cm^2 at 1 MHz and 100% duty cycle for 2 minutes) using a SONITRON® 2000 ultrasound apparatus (Rich-Mar, Inola, Okla.), 2) sonoporation alone (same parameters as above), 3) isotonic calcium-chloride solution injection, or 4) no treatment. Tumor volume was calculated as ab^2n/6, where a is the largest diameter and b is the largest diameter perpendicular to a. […]
The difference in tumor volume between the different treatment groups at different time after treatment was assessed using student's t-test.

[3] = test system: DC-3F cells; assay: Calcium electroporation with two calcium sources, MTT assay; assay type: cell-based, Chinese hamster; settings: 1 mM, 8 pulses, 0-1.6 kV/cm; MTT 1 day after treatment
Experimental: DC-3F cells were electroporated as described in example 1 with 1 mM calcium chloride (prepared by SAD, Denmark) or 1 mM calcium glubionate (Sandoz, Holzkirchen, Germany). The calcium concentration was chosen based on the experiment described in example 1 where 1 mM calcium is the lowest concentration inducing high cell death. The cells were electroporated with 8 pulses of […] at 1 Hz and increasing electric field (0-1.6 kV/cm). After 20 min at 37° C. and 5% CO2 cells were diluted in RPMI 1640 culture medium with 10% fetal calf serum and penicillin-streptomycin and seeded in 96-well plates at a concentration of 3.1×10^4 cells/100 μl.

[4] = test system: N32 (rat brain glioma) tumors; assay: Calcium electroporation of brain tumor, MRI and H&E; assay type: in vivo, Sprague Dawley rats
Experimental: N32, a rat brain glioma derived tumor cell line, and 7-11 weeks old Sprague Dawley male rats (Taconic, Hudson N.Y.) were used for the in vivo experiments. The cells were tested by rapid MAP27 panel (Taconic, Hudson N.Y.) before use without signs of infection. Inoculation of 3,000 N32 cells in 5 μl at the stereotaxic coordinates; X=2, Y=1, Z=−4 was performed and verification of tumor by MRI prior to treatment was performed two weeks after inoculation. HYPNORM™-DORMICUM™ (fentanyl/fluanisone/midazolam; VetaPharma, Leeds, U K and Roche, Basel, Switzerland) was used for anesthesia complemented with RIMADYL® (Carprofen) (Pfizer ApS, Ballerup, Denmark) for pain relief after surgery. Tumors were treated two weeks after inoculation with 1) injection of 14 μl calcium-chloride solution (168 mM) and electroporation (32 pulses of 100V for 100 μs and a frequency of 1 Hz) using an 8-electrode device developed for treatment of brain tumors, a square wave electroporator (CLINIPORATOR®, IGEA, Modena, Italy), and a switch box (Sonion), or 2) injection of 14 μl calcium-chloride solution (168 mM) and placement of electrodes but no pulses applied. MRI was performed at day 1, 3, 6, and 8 after treatment. […] The extend of necrosis, the presence of macrophages and the influence on neurons and glia cells were evaluated by H&E, PAS, NF, and GFAP staining, respectively.

[Ca+2].[Cl-].[Cl-] [calcium chloride]
cell death ([1]; with ultrasound, 0 to 3 mM calcium): dose dependent cell death | effect on cell viability ([1]; without ultrasound, high calcium concentrations): no effect on cell viability | treated tumors eliminated ([2]; 168 mM CaCl2, half tumor volume, sonoporation 3.5 W/cm^2, 1 MHz, 2 minutes, 7/8): 88% | tumor volume ([2]; isotonic calcium-chloride injection alone (control)): continues to increase | effect of calcium electroporation on cell viability, calcium chloride versus calcium glubionate [3]: no difference | tumor size (MRI, H&E) ([4]; 14 μl 168 mM calcium alone, no pulses, 6 days after the treatment): no effect on tumor size | tumor (MRI, H&E) ([4]; 14 μl 168 mM calcium chloride with electroporation (32 pulses 100V), 8 days after the treatment): eliminated
